From PMC5410289, “Stable H3 peptide was delivered by gold nanorods to inhibit LSD1 activation and induce human mesenchymal stem cells differentiation” (Oncotarget, 2017)

Tested on: human BMSCs
Test: RT-PCR of stemness, differentiation and hepatic marker genes in human BMSCs
Format: cell-based
Settings: human MSCs, GAPDH as normalization, treated 2, 7 and 14 days, combination effect seen during 7 days
Method: The human BMSCs were treated with PBS as control, AuNRs, AuNRs-SP nanocomplex, HGF alone and AuNRs-SP nanocomplex+HGF respectively for 2 days, 7 days and 14 days (Figure 7). Consequently, the expression of stemness gene Oct4, differentiation gene Sox17 and two hepatic marker genes, AFP and ck19 in the human MSCs were analyzed by RT-PCR. Comparing with PBS-treated group and AuNRs-treated group, human MSCs were induced to differentiate by AuNRs-SP nanocomplex with the decreased Oct4 and increased Sox17 (Figure 7A and 7B).
After human BMSCs were treated with PBS, AuNRs, HGF, AuNRs-SP and AuNRs-SP+HGF for 14 days, total RNA was extracted using TRIzol (Invitrogen, Carlsbad, CA, USA) and was quantitated by Nano Drop 2000. 2 μg total RNA was reverse transcribed to cDNA using a reverse transcriptase kit (Takara, Japan) according to the manufacturer's instructions. The mRNA levels of the target genes were quantified by RT-PCR, using GAPDH as normalization. Primers used in this study: Oct4 forward 5′-GACAACAATGAGAACCTTCAG-3′ and reverse 5′-CTGGCGCCGGTTACAGAACCA-3′; Sox17 forward 5′-GAGCCAAGGGCGAGTCCCGTA-3′ and reverse 5′-CCTTCCACGACTTGCCCAGCA-3′; AFP forward 5′-AGCGAGGAGAAATGGTCCGG-3′ and reverse 5′-GGA CAT CTT CAC CAT GTG-3′; Ck19 forward 5′-GCACTACAGCCACTACTACAC-3′ and reverse 5′-CTC ATG CGC AGA GCC TGT-3′.

HGF: hepatocyte growth factor
expression of hepatic marker gene AFP (mRNA): could not change the expression of AFP and ck19 until 14 days | expression of hepatic marker gene ck19 (mRNA): could not change the expression of AFP and ck19 until 14 days
